One block for each molecule: values may come before it.
How the values were obtained:
Assay type in all cases: cell-based, human
HCC38 [1] = test: Mitochondrial potential (ΔΨm), JC-1 method; settings: IC50 concentration, 24 h
Excerpt: 5,5,6,6-Tetrachloro-1,1,3,3-tetraethylbenzimidazolylcarbocyanine iodide (JC-1) is a cationic carbocyanine dye commonly used as a fluorescent probe to detect mitochondrial membrane depolarization. In living cells with an intact mitochondrial membrane, the lipophilic JC-1 penetrates the negatively charged mitochondrial matrix as a monomer. It then forms fluorescent aggregates with red-orange fluorescence (λex = 514 nm, λem = 590 nm). During depolarization of the mitochondrial membrane or in apoptotic cells, the concentration of JC-1 decreases, and the aggregates disintegrate into monomers emitting green fluorescence (λex = 514 nm, λem = 529 nm). The fluorescence ratio of aggregates (λem = 590 nm) and monomers (λem = 529 nm)—590 nm/529 nm—reflects the level of damage to the mitochondrial membrane.
The cells were seeded in black 96-well fluorometric microplates at a density of 10 × 10^3 cells per well. […] After incubation with the compounds, the medium was removed, the cell monolayer in the wells was washed twice with HBSS (140 mM NaCl, 5 mM KCl, 0.8 mM MgCl2, 1.8 mM CaCl2, 1 mM Na2HPO4, 10 mM HEPES and 1% glucose) and 50 μL of JC-1 solution in HBSS was added to each well (final probe concentration 5 μmol/L). Cells were incubated with the probe for 30 min in the dark in an incubator (37 °C). After incubation, the probe was removed and replaced with fresh HBSS buffer. Fluorescence measurements (Perkin-Elmer LS-5B spectrofluorometer, MA, USA) of JC-1 monomers and aggregates were made at the following excitation and emission wavelengths: λex = 514 nm, λem = 529 nm (monomers), λex = 514 nm, λem = 590 nm (aggregates). The results of the tested samples are presented as the percentage fluorescence ratio of JC-1 aggregates and JC-1 monomers relative to the fluorescence ratio of JC-1 aggregates and JC-1 monomers of the control, which was assumed to be 100%.
A positive control was formed of cells pre-incubated with 5 µmol/L carbonyl cyanide m-chlorophenylhydrazone (CCCP), a chemical inhibitor of oxidative phosphorylation that acts by uncoupling the protons flowing along the electrochemical gradient from phosphorylation.

HCC38 [2] = test: Superoxide anion generation, DHE probe; settings: IC50 concentration, 24 h
Description: The level of superoxide anion (O2^•−) was determined by microplate spectrofluorimetry with dihydroethidium (hydroethidine, DHE) (Life Technologies, Carlsbad, CA, USA), which is the most commonly used fluorogenic probe for monitoring the intracellular production of superoxide anion O2^•− [41]. […] Thanks to this shift, DHE can be used as a sensitive probe for cellular ROS. The reaction between superoxide and DHE generates a highly specific red fluorescent product, 2-hydroxyethidium (2-OH-E^+).
The cells were seeded in black 96-well fluorometric microplates at a density of 10 × 10^3 cells per well. […] After incubation, the medium was removed, the cell monolayer in the wells was washed twice with HBSS (140 mM NaCl, 5 mM KCl, 0.8 mM MgCl2, 1.8 mM CaCl2, 1 mM Na2HPO4, 10 mM HEPES and 1% glucose) and 50 μL of DHE solution in HBSS was added to each well (final probe concentration 5 μmol/L). Cells were incubated with the probe for 30 min in the dark in an incubator (37 °C), and then fluorescence was measured. The measurement was performed at the following excitation and fluorescence emission wavelengths: λex = 498 nm/λem = 582 nm. Fluorescence measurements were made on a Perkin-Elmer LS-5B spectrofluorometer (MA, USA). Fluorescence intensity values for control cells were arbitrarily set as 100%. The results are presented as percentages of control cell values, calculated relative to the fluorescence intensity of the controls (100%): sample fluorescence was calculated as Δf in relation to the controls.

Hec-1-A = test: Nitric oxide (RNS) generation, DAF-FM diacetate probe; settings: IC50 concentration, 24 h
Description: (§1) Diaminofluorescein-FM diacetate (DAF-FM diacetate, Invitrogen, Carlsbad, CA, USA), is a widely employed cell permeant fluorescent reagent for the detection and quantification of reactive nitrogen species (RNS), particularly nitric oxide (NO). […] However, upon reaction with NO, it undergoes a transformation that yields a highly fluorescent benzotriazole derivative (excitation/emission maxima: λex = 495, λem = 515 nm).
(§2) The cells were seeded in black 96-well fluorometric microplates at a density of 10 × 10^3 cells per well. […] After incubation with the compounds, the medium was removed, the cell monolayer in the wells was washed twice with HBSS (140 mM NaCl, 5 mM KCl, 0.8 mM MgCl2, 1.8 mM CaCl2, 1 mM Na2HPO4, 10 mM HEPES and 1% glucose) and 50 μL of DAF-FM diacetate solution in HBSS was added to each well (final probe concentration 5 μmol/L). Cells were incubated with the probe for 30 min in the dark in an incubator (37 °C). After incubation, the probe was removed and replaced with fresh HBSS buffer and then incubated for an additional 30 min to allow for complete de-esterification of the intra cellular diacetates. After this time, the fluorescence was measured. The measurement was performed at the following excitation and fluorescence emission wavelengths: λex = 495 nm/λem = 515 nm. Fluorescence was measured on a Perkin-Elmer LS-5B spectrofluorometer (MA, USA). Fluorescence intensity values for control cells were arbitrarily set as 100%. The results are presented as percentages of control cells calculated on the basis of a comparison of the fluorescence intensity ratio of test samples and controls (100%) (fluorescence of samples was calculated as Δf in relation to the control).

HCC38 [3] = test: as above; settings: IC50 concentration, 24 h
Description: as §1, §2

RBCs = test: Erythrocyte morphology, phase contrast microscopy; settings: 100 µmol/L; 24 h, 37 °C
Description: The experiments on human blood were performed in accordance with Polish national guidelines, and the study protocols were approved by the Bioethics Committee of the Medical University of Lodz, Poland: approval no (RNN/104/20/KE). The blood samples were obtained from healthy donors at the Blood Donation Centre in Lodz. The procedure for […] for erythrotoxicity studies is given in a previous paper. The influence of the synthesized compounds, together with a reference compound on RBC membrane integrity, was performed by lysis assay, described elsewhere. Briefly, 2% RBC suspension in 0.9% NaCl was incubated at 37 °C for 24 h with the tested compounds at concentrations of 100 µmol/L, 50 µmol/L, 25 µmol/L, 10 µmol/L and 1 µmol/L. The samples were centrifuged at 3000 rpm for 10 min, and the absorbance of the supernatant was measured at 550 nm. The results are presented as a percentage of hemolysis where a sample containing 10 μL of 2.0% v/v Triton X-100 was regarded as a positive control contributing to 100% of hemolysis. A sample containing saline solution represented the spontaneous hemolysis of RBCs (control). The experiments were conducted using at least three different biological materials (n = 3). […] Additionally, erythrocyte morphology was evaluated using a phase contrast Opta-Tech inverted microscope at 400× magnification.

SMILES: O=C1/C(=C/c2ccccc2)C(c2ccccc2)Oc2ccccc21 (centres unmarked) [Compound 5]
change in mitochondrial potential (in words) (HCC38 [1]): strong hyperpolarization

SMILES: O=C1/C(=C/c2ccccc2)COc2ccccc21 [Compound 1]
increase in superoxide anion / ROS relative to control (DHE probe) (HCC38 [2]): approximately 20%
increase in nitric oxide production (DAF-FM) (Hec-1-A): approximately 20%
increase in nitric oxide production (DAF-FM) (HCC38 [3]): approximately 15%

RBC morphology (in words) (RBCs): appearance of single eryptocytes
SMILES: COc1cccc(/C=C2/C(=O)c3ccccc3OC2c2ccccc2)c1 (centres unmarked) [Compound 3]
